Reference: ChEMBL document CHEMBL1201861, “Genomics of Drug Sensitity in Cancer screening data, Wellcome Trust Sanger Institute”

What was measured:
Test in all cases: cells
EW-18 = assay type: functional, cell-based; conditions: Homo sapiens;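 also: growth inhibition of EW-18 cells, read out by a cell viability assay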
Description: SANGER: Inhibition of human EW-18 cell growth in a cell viability assay.

U-118-MG = assay type: functional, cell-based, Homo sapiens; conditions: Homo sapiens, U-118-MG
Description: SANGER: Inhibition of human U-118-MG cell growth in a cell viability assay.

A 172 = assay type: functional, cell-based, Homo sapiens; conditions: Homo sapiens, A 172;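 also: growth inhibition of A172 cells, measured with a cell viability readout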
Description: SANGER: Inhibition of human A172 cell growth in a cell viability assay.

GAMG = assay type: functional, cell-based, Homo sapiens; conditions: Homo sapiens, GAMG;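 also: cell growth inhibition measured by a viability assay in the GAMG human cell line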
Description: SANGER: Inhibition of human GAMG cell growth in a cell viability assay.

SW1463 = assay type: functional, cell-based, Homo sapiens; conditions: Homo sapiens, SW1463;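 also: growth inhibition of SW1463 cells, determined with a cell viability assay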
Description: SANGER: Inhibition of human SW1463 cell growth in a cell viability assay.

UACC-257 = assay type: functional, cell-based, Homo sapiens; conditions: Homo sapiens, UACC-257
Description: SANGER: Inhibition of human UACC-257 cell growth in a cell viability assay.

BHY = assay type: functional, cell-based, Homo sapiens; conditions: Homo sapiens, BHY;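 also: cell growth inhibition read out by a viability assay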
Description: SANGER: Inhibition of human BHY cell growth in a cell viability assay.

SK-N-FI = assay type: functional, cell-based, Homo sapiens; conditions: Homo sapiens, SK-N-FI;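 also: cell viability assay measuring growth inhibition of human SK-N-FI cells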
Description: SANGER: Inhibition of human SK-N-FI cell growth in a cell viability assay.

TE-5 = assay type: functional, cell-based, Homo sapiens; conditions: Homo sapiens, TE-5;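 also: inhibition of cell growth, read out by a cell viability assay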
Description: SANGER: Inhibition of human TE-5 cell growth in a cell viability assay.

MFM-223 = assay type: functional, cell-based, Homo sapiens; conditions: Homo sapiens, MFM-223
Description: SANGER: Inhibition of human MFM-223 cell growth in a cell viability assay.

CAL-27 = assay type: functional, cell-based, Homo sapiens; conditions: Homo sapiens, CAL-27;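 also: Viability-based readout, IC50 reflecting inhibition of CAL-27 cell growth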
Description: SANGER: Inhibition of human CAL-27 cell growth in a cell viability assay.

EW-1 = assay type: functional, cell-based, Homo sapiens; conditions: Homo sapiens, EW-1
Description: SANGER: Inhibition of human EW-1 cell growth in a cell viability assay.

NB6 = assay type: functional, cell-based, Homo sapiens; conditions: Homo sapiens, NB6
Description: SANGER: Inhibition of human NB6 cell growth in a cell viability assay.

SW1417 = assay type: functional, cell-based, Homo sapiens; conditions: Homo sapiens, SW1417;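 also: growth inhibition of human SW1417 cells, read out with a cell viability assay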
Description: SANGER: Inhibition of human SW1417 cell growth in a cell viability assay.

SCC-25 = assay type: functional, cell-based, Homo sapiens; conditions: Homo sapiens, SCC-25;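 also: growth inhibition of SCC-25 cells, measured with a cell viability assay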
Description: SANGER: Inhibition of human SCC-25 cell growth in a cell viability assay.

NCI-H23 = assay type: functional, cell-based, Homo sapiens; conditions: Homo sapiens, NCI-H23;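 also: cell viability assay measuring growth inhibition of NCI-H23 cells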
Description: SANGER: Inhibition of human NCI-H23 cell growth in a cell viability assay.

NCI-H1651 = assay type: functional, cell-based, Homo sapiens; conditions: Homo sapiens, NCI-H1651;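 also: Read-out is a cell viability assay, with IC50 expressing inhibition of NCI-H1651 cell growth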
Description: SANGER: Inhibition of human NCI-H1651 cell growth in a cell viability assay.

QIMR-WIL = assay type: functional, cell-based; conditions: Homo sapiens;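 also: growth inhibition of QIMR-WIL cells, read out with a cell viability assay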
Description: SANGER: Inhibition of human QIMR-WIL cell growth in a cell viability assay.

HuP-T3 = assay type: functional, cell-based, Homo sapiens; conditions: Homo sapiens, HuP-T3;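 also: HuP-T3 cell growth inhibition, read out with a cell viability assay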
Description: SANGER: Inhibition of human HuP-T3 cell growth in a cell viability assay.

IST-MEL1 = assay type: functional, cell-based, Homo sapiens; conditions: Homo sapiens, IST-MEL1;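 also: growth inhibition of the cell line, read out with a cell viability assay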
Description: SANGER: Inhibition of human IST-MEL1 cell growth in a cell viability assay.

NCI-H358 = assay type: functional, cell-based, Homo sapiens; conditions: Homo sapiens, NCI-H358;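 also: growth inhibition of NCI-H358 human cells, read out with a cell viability assay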
Description: SANGER: Inhibition of human NCI-H358 cell growth in a cell viability assay.

CCRF-CEM = assay type: functional, cell-based; conditions: Homo sapiens;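 also: inhibition of CCRF-CEM cell growth, measured by a cell viability assay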
Description: SANGER: Inhibition of human CCRF-CEM cell growth in a cell viability assay.

NB17 = assay type: functional, cell-based; conditions: Homo sapiens;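 also: growth inhibition of NB17 cells, read out with a cell viability assay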
Description: SANGER: Inhibition of human NB17 cell growth in a cell viability assay.

NCI-H1355 = assay type: functional, cell-based, Homo sapiens; conditions: Homo sapiens, NCI-H1355;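 also: growth inhibition of human NCI-H1355 cells, read out by a cell viability assay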
Description: SANGER: Inhibition of human NCI-H1355 cell growth in a cell viability assay.

SNU-387 = assay type: functional, cell-based, Homo sapiens; conditions: Homo sapiens, SNU-387
Description: SANGER: Inhibition of human SNU-387 cell growth in a cell viability assay.

U2OS = assay type: functional, cell-based, Homo sapiens, U-2-OS; conditions: Homo sapiens, U2OS;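 also: growth inhibition of human U-2-OS cells, determined with a cell viability assay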
Description: SANGER: Inhibition of human U-2-OS cell growth in a cell viability assay.

EW-24 = assay type: functional, cell-based; conditions: Homo sapiens;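 also: human EW-24 cancer cell line, growth inhibition read out via a cell viability assay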
Description: SANGER: Inhibition of human EW-24 cell growth in a cell viability assay.

EFO-27 = assay type: functional, cell-based, Homo sapiens; conditions: Homo sapiens, EFO-27;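 also: growth inhibition of EFO-27 cells, read out with a cell viability assay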
Description: SANGER: Inhibition of human EFO-27 cell growth in a cell viability assay.

CAPAN-1 = assay type: functional, cell-based, Homo sapiens; conditions: Homo sapiens, CAPAN-1;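 also: growth suppression of CAPAN-1 cells, read out by a cell viability assay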
Description: SANGER: Inhibition of human CAPAN-1 cell growth in a cell viability assay.

IST-MES1 = assay type: functional, cell-based, Homo sapiens; conditions: Homo sapiens, IST-MES1;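 also: growth inhibition of IST-MES1 cells, measured with a cell viability assay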
Description: SANGER: Inhibition of human IST-MES1 cell growth in a cell viability assay.

TE-10 = assay type: functional, cell-based, Homo sapiens; conditions: Homo sapiens, TE-10;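 also: growth inhibition of TE-10 cells, measured by a cell viability assay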
Description: SANGER: Inhibition of human TE-10 cell growth in a cell viability assay.

ABC-1 = assay type: functional, cell-based, Homo sapiens; conditions: Homo sapiens, ABC-1;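 also: growth inhibition of human ABC-1 cells, read out by a cell viability assay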
Description: SANGER: Inhibition of human ABC-1 cell growth in a cell viability assay.

OVCAR-8 = assay type: functional, cell-based, Homo sapiens; conditions: Homo sapiens, OVCAR-8;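 also: growth inhibition of human OVCAR-8 cells, read out by a cell viability assay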
Description: SANGER: Inhibition of human OVCAR-8 cell growth in a cell viability assay.

SK-MEL3 = assay type: functional, cell-based, Homo sapiens, SK-MEL-3; conditions: Homo sapiens, SK-MEL3;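 also: growth inhibition of human SK-MEL-3 cells, read out with a cell viability assay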
Description: SANGER: Inhibition of human SK-MEL-3 cell growth in a cell viability assay.

M059J = assay type: functional, cell-based, Homo sapiens; conditions: Homo sapiens, M059J;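 also: growth inhibition of M059J cells, read out with a cell viability assay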
Description: SANGER: Inhibition of human M059J cell growth in a cell viability assay.

MLMA = assay type: functional, cell-based, Homo sapiens; conditions: Homo sapiens, MLMA;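 also: growth inhibition of MLMA cells (human), determined through a cell viability readout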
Description: SANGER: Inhibition of human MLMA cell growth in a cell viability assay.

HuP-T4 = assay type: functional, cell-based, Homo sapiens; conditions: Homo sapiens, HuP-T4;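 also: cell viability assay measuring how much HuP-T4 cell growth is inhibited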
Description: SANGER: Inhibition of human HuP-T4 cell growth in a cell viability assay.

RPMI-8866 = assay type: functional, cell-based; conditions: Homo sapiens
Description: SANGER: Inhibition of human RPMI-8866 cell growth in a cell viability assay.

GMS-10 = assay type: functional, cell-based, Homo sapiens; conditions: Homo sapiens, GMS-10;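 also: growth inhibition of GMS-10 cells, read out as cell viability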
Description: SANGER: Inhibition of human GMS-10 cell growth in a cell viability assay.

NB69 = assay type: functional, cell-based, Homo sapiens; conditions: Homo sapiens, NB69;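 also: growth inhibition of NB69 cells, determined by a cell viability assay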
Description: SANGER: Inhibition of human NB69 cell growth in a cell viability assay.

HDLM-2 = assay type: functional, cell-based; conditions: Homo sapiens;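 also: cell viability assay measuring suppression of HDLM-2 proliferation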
Description: SANGER: Inhibition of human HDLM-2 cell growth in a cell viability assay.

COR-L23 = assay type: functional, cell-based, Homo sapiens; conditions: Homo sapiens, COR-L23;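 also: cell viability assay measuring how strongly compounds suppress growth of COR-L23 cells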
Description: SANGER: Inhibition of human COR-L23 cell growth in a cell viability assay.

NCI-H209 = assay type: functional, cell-based; conditions: Homo sapiens;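 also: growth inhibition of human NCI-H209 cells, measured by a cell viability assay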
Description: SANGER: Inhibition of human NCI-H209 cell growth in a cell viability assay.

COR-L105 = assay type: functional, cell-based, Homo sapiens; conditions: Homo sapiens, COR-L105;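 also: cell growth inhibition determined with a viability assay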
Description: SANGER: Inhibition of human COR-L105 cell growth in a cell viability assay.

MCF7 = assay type: functional, cell-based, Homo sapiens; conditions: Homo sapiens, MCF7;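 also: growth inhibition of human MCF7 cells, read out with a cell viability assay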
Description: SANGER: Inhibition of human MCF7 cell growth in a cell viability assay.

NCI-H1304 = assay type: functional, cell-based; conditions: Homo sapiens;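 also: growth inhibition of the cancer cell line, measured in a cell viability assay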
Description: SANGER: Inhibition of human NCI-H1304 cell growth in a cell viability assay.

BFTC-905 = assay type: functional, cell-based, Homo sapiens; conditions: Homo sapiens, BFTC-905
Description: SANGER: Inhibition of human BFTC-905 cell growth in a cell viability assay.

LNCaP-Clone-FGC = assay type: functional, cell-based, Homo sapiens; conditions: Homo sapiens, LNCaP-Clone-FGC
Description: SANGER: Inhibition of human LNCaP-Clone-FGC cell growth in a cell viability assay.

KYSE-180 = assay type: functional, cell-based, Homo sapiens; conditions: Homo sapiens, KYSE-180;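 also: growth inhibition of KYSE-180 cells, read out with a cell viability assay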
Description: SANGER: Inhibition of human KYSE-180 cell growth in a cell viability assay.

COLO-668 = assay type: functional, cell-based, Homo sapiens; conditions: Homo sapiens, COLO-668
Description: SANGER: Inhibition of human COLO-668 cell growth in a cell viability assay.

COR-L88 = assay type: functional, cell-based; conditions: Homo sapiens;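 also: growth inhibition of COR-L88 cells, read out with a cell viability assay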
Description: SANGER: Inhibition of human COR-L88 cell growth in a cell viability assay.

Cn1cc(C2=C(c3ccc(Cl)cc3Cl)C(=O)NC2=O)c2ccccc21 [SB-216763]
IC50 (EW-18): > 10000 nM
IC50 (U-118-MG): > 10000 nM
IC50 (A 172): > 10000 nM
IC50 (GAMG): 6650 nM
IC50 (SW1463): > 10000 nM
IC50 (UACC-257): > 10000 nM
IC50 (BHY): > 10000 nM
IC50 (SK-N-FI): > 10000 nM
IC50 (TE-5): > 10000 nM
IC50 (MFM-223): > 10000 nM
IC50 (CAL-27): > 10000 nM
IC50 (EW-1): > 10000 nM
IC50 (NB6): > 10000 nM
IC50 (SW1417): > 10000 nM
IC50 (SCC-25): > 10000 nM
IC50 (NCI-H23): > 10000 nM
IC50 (NCI-H1651): > 10000 nM
IC50 (QIMR-WIL): > 10000 nM
IC50 (HuP-T3): > 10000 nM
IC50 (IST-MEL1): > 10000 nM
IC50 (NCI-H358): > 10000 nM
IC50 (CCRF-CEM): > 10000 nM
IC50 (NB17): > 10000 nM
IC50 (NCI-H1355): > 10000 nM
IC50 (SNU-387): > 10000 nM
IC50 (U2OS): > 10000 nM
IC50 (EW-24): > 10000 nM
IC50 (EFO-27): > 10000 nM
IC50 (CAPAN-1): > 10000 nM
IC50 (IST-MES1): > 10000 nM
IC50 (TE-10): > 10000 nM
IC50 (ABC-1): > 10000 nM
IC50 (OVCAR-8): > 10000 nM
IC50 (SK-MEL3): > 10000 nM
IC50 (M059J): > 10000 nM
IC50 (MLMA): > 10000 nM
IC50 (HuP-T4): > 10000 nM
IC50 (RPMI-8866): > 10000 nM
IC50 (GMS-10): > 10000 nM
IC50 (NB69): > 10000 nM
IC50 (HDLM-2): 210 nM
IC50 (COR-L23): > 10000 nM
IC50 (NCI-H209): > 10000 nM
IC50 (COR-L105): > 10000 nM
IC50 (MCF7): > 10000 nM
IC50 (NCI-H1304): > 10000 nM
IC50 (BFTC-905): > 10000 nM
IC50 (LNCaP-Clone-FGC): > 10000 nM
IC50 (KYSE-180): > 10000 nM
IC50 (COLO-668): > 10000 nM

C=CCNC1=C2C[C@@H](C)C[C@H](OC)[C@H](O)[C@@H](C)/C=C(\C)[C@H](OC(N)=O)[C@@H](OC)/C=C\C=C(/C)C(=O)NC(=CC1=O)C2=O [TANESPIMYCIN]
IC50 (EW-18): 389 nM
IC50 (U-118-MG): 276 nM
IC50 (A 172): 210 nM
IC50 (GAMG): 34.3 nM
IC50 (SW1463): > 1000 nM
IC50 (UACC-257): 822 nM
IC50 (BHY): 237 nM
IC50 (SK-N-FI): > 1000 nM
IC50 (TE-5): > 1000 nM
IC50 (MFM-223): 264 nM
IC50 (CAL-27): 190 nM
IC50 (EW-1): > 1000 nM
IC50 (NB6): > 1000 nM
IC50 (SW1417): > 1000 nM
IC50 (SCC-25): 246 nM
IC50 (NCI-H23): 26.6 nM
IC50 (NCI-H1651): 700 nM
IC50 (QIMR-WIL): 851 nM
IC50 (HuP-T3): 401 nM
IC50 (IST-MEL1): < 3.91 nM
IC50 (NCI-H358): 687 nM
IC50 (CCRF-CEM): > 1000 nM
IC50 (NB17): 880 nM
IC50 (NCI-H1355): 281 nM
IC50 (SNU-387): > 1000 nM
IC50 (U2OS): 172 nM
IC50 (EFO-27): 100 nM
IC50 (CAPAN-1): 248 nM
IC50 (IST-MES1): > 1000 nM
IC50 (TE-10): 414 nM
IC50 (ABC-1): > 1000 nM
IC50 (OVCAR-8): 86.2 nM
IC50 (SK-MEL3): 815 nM
IC50 (M059J): 90.3 nM
IC50 (MLMA): > 1000 nM
IC50 (COR-L88): 49.1 nM
IC50 (HuP-T4): 129 nM
IC50 (RPMI-8866): > 1000 nM
IC50 (GMS-10): 67 nM
IC50 (NB69): 271 nM
IC50 (HDLM-2): > 1000 nM
IC50 (COR-L23): 468 nM
IC50 (NCI-H209): > 1000 nM
IC50 (COR-L105): > 1000 nM
IC50 (MCF7): 96.8 nM
IC50 (NCI-H1304): > 1000 nM
IC50 (BFTC-905): 315 nM
IC50 (LNCaP-Clone-FGC): 800 nM
IC50 (KYSE-180): 92.6 nM
IC50 (COLO-668): > 1000 nM
